This passage reports IC50 and IC90 results from ChEMBL document CHEMBL4483862, “Open-source discovery of chemical leads for next-generation chemoprotective antimalarials” (2018).

The subject of this assay is Plasmodium berghei. The assay can be described thus: Luciferase/luciferin-expressing antifolate-resistant parasites were used to infect a culture of HepG2 cells that were pre-incubated with compounds. Infected hepatocytes emit light due to the luciferase reaction. Assay results are presented as the percent inhibition of light emission compared to control. […]. Type of assay: functional. Particulars: sporozoite; for IC90: read-out: LUCIFERASE INFECTION ASSAY - IC90.

[1] abbreviates: read-out: LUCIFERASE INFECTION ASSAY - IC50.

For `Cc1sc2ncnc(NC(C)c3ccc(S(C)(=O)=O)cc3)c2c1C` (stereo not given), the IC90 was above 10 µM. The 50% inhibitory concentration (IC50) (HEPG2TOX_HILL_SLOPE 5.66, HEPG2TOX_R_SQUARED 0.483, PBLUC_HILL_SLOPE 1.68, PBLUC_R_SQUARED 0.334, read-out: LUCIFERASE INFECTION ASSAY - IC50) is 6.13 µM.
In the case of `O=C(Nc1cccc(C(F)(F)F)c1)OCCSc1ccc([N+](=O)[O-])c2nonc12`, the 90% effect concentration (IC90) is above 7.7 µM. The concentration for half-maximal inhibition (IC50) (FFLUC_HILL_SLOPE 1.97, FFLUC_R_SQUARED 0.686, HEPG2TOX_HILL_SLOPE 15.6, HEPG2TOX_R_SQUARED 0.779, read-out: LUCIFERASE INFECTION ASSAY - IC50) is above 7.7 µM.
Consider `O=[N+]([O-])c1cnc(Sc2nnc(O)n2-c2ccc(OCc3ccccc3)cc2)s1`, for which the concentration for an effect of 90% (IC90) was above 7.72 µM. Further, under setting [1], the IC50 was found to be 3.81 µM.
With `Cc1ccc(Nc2cc(-c3ccc(CC(C)C)cc3)ncn2)cc1NS(C)(=O)=O`, the concentration for an effect of 90% (IC90) was above 8.04 µM. Moreover, the IC50 (PBLUC_HILL_SLOPE 12.9, PBLUC_R_SQUARED 0.53, read-out: LUCIFERASE INFECTION ASSAY - IC50) came to 7.03 µM.
Take `COc1ccc(-c2cnc3cnc(-c4ccc(OC)nc4)cn23)cc1`: the 90% effect concentration (IC90) turned out to be 8.79 µM. Further, the IC50 (HEPG2TOX_HILL_SLOPE 10.4, HEPG2TOX_R_SQUARED 0.778, PBLUC_HILL_SLOPE 1.98, PBLUC_R_SQUARED 0.81, read-out: LUCIFERASE INFECTION ASSAY - IC50) came to 2.91 µM.
Turning to `Cc1nc(NC(=O)c2ccc(-n3ccnc3)nc2)sc1SCC#N`, the 90% effect concentration (IC90) was above 10 µM. Also, the concentration for half-maximal inhibition (IC50) under setting [1] is above 10 µM.
For the compound `CCOC(=O)C1(C)CCN1C(=O)c1cc(OC)c(OC)c(OC)c1` (stereo not given), the 90% effect concentration (IC90) is above 9.78 µM. In addition, under setting [1], the IC50 is above 9.78 µM.
For `Cc1cc2occ(CC(=O)Nc3ccc(N4CCN(C)CC4)nc3)c2cc1C(C)C`, the concentration for an effect of 90% (IC90) was above 10 µM. Moreover, the IC50 under setting [1] was found to be 9.57 µM.
Turning to `COc1ccc(O)c(C(=O)c2cnc3cc4c(cc3c2)OCCO4)c1`, the IC90 came out at 1.21 µM. Besides, under “HEPG2TOX_HILL_SLOPE 0.562, HEPG2TOX_R_SQUARED 0.791, PBLUC_HILL_SLOPE 0.753, PBLUC_R_SQUARED 0.781, read-out: LUCIFERASE INFECTION ASSAY - IC50”, the IC50 was 0.0655 µM.
Consider `O=S(=O)(Nc1ccc(Cl)cc1)c1ccc2nc(-c3ccccn3)[nH]c2c1`, for which the IC90 came to 8.29 µM. Moreover, the IC50 (HEPG2TOX_HILL_SLOPE 9.44, HEPG2TOX_R_SQUARED 0.935, PBLUC_HILL_SLOPE 6.04, PBLUC_R_SQUARED 0.808, read-out: LUCIFERASE INFECTION ASSAY - IC50) worked out at 5.77 µM.
Turning to `Cc1ccccc1-c1cn2c(-c3ccc(O)cc3)cnc2cn1`, the IC90 stood at 3.92 µM. Further, the IC50 (FFLUC_HILL_SLOPE 9.55, FFLUC_R_SQUARED 0.182, HEPG2TOX_HILL_SLOPE 2.1, HEPG2TOX_R_SQUARED 0.88, PBLUC_HILL_SLOPE 16, PBLUC_R_SQUARED 0.259, read-out: LUCIFERASE INFECTION ASSAY - IC50) is 3.41 µM.
Take `Clc1ccc2nc(-c3cnn(-c4ccccc4)c3)[nH]c2c1`: the 90% effect concentration (IC90) was 7.38 µM. In addition, the half-maximal inhibitory concentration (IC50) (HEPG2TOX_HILL_SLOPE 1.09, HEPG2TOX_R_SQUARED 0.847, PBLUC_HILL_SLOPE 23.0, 2.49, PBLUC_R_SQUARED 0.431, 0.566, read-out: LUCIFERASE INFECTION ASSAY - IC50) was 5.39 µM.
As for `O=C(CN1C(=O)NC(Cc2ccccc2)(c2ccccc2)C1=O)N1CCc2ccccc2C1` (stereo not given), the concentration for an effect of 90% (IC90) was above 10 µM. Also, the IC50 (PBLUC_HILL_SLOPE 3.92, PBLUC_R_SQUARED 0.472, read-out: LUCIFERASE INFECTION ASSAY - IC50) came out at 7.9 µM.
With `Cc1ccc(C(=O)Nc2ccccc2Sc2ncc([N+](=O)[O-])s2)cc1`, the IC90 was above 8.88 µM. The IC50 (FFLUC_HILL_SLOPE 77.3, FFLUC_R_SQUARED 0.701, read-out: LUCIFERASE INFECTION ASSAY - IC50) is above 8.88 µM.
On to `O=C(c1nn(-c2ccccc2)c(=O)c2ccccc12)N(CCCN1CCOCC1)Cc1cccs1`, for which the IC90 is above 10 µM. Moreover, the half-inhibitory concentration (IC50) (PBLUC_HILL_SLOPE 4.06, PBLUC_R_SQUARED 0.124, read-out: LUCIFERASE INFECTION ASSAY - IC50) worked out at 8.65 µM.
Take `CCOc1ccccc1NS(=O)(=O)c1ccc(C(=O)OC)cc1`: the IC90 is above 10 µM. Moreover, the half-maximal inhibitory concentration (IC50) (HEPG2TOX_HILL_SLOPE 3.9, HEPG2TOX_R_SQUARED 0.853, PBLUC_HILL_SLOPE 3.26, PBLUC_R_SQUARED 0.571, read-out: LUCIFERASE INFECTION ASSAY - IC50) is 7.52 µM.
`CC(=O)c1cccc(-c2cnc3ccc(-c4cccc(C(F)(F)F)c4)nn23)c1`: the IC90 turned out to be 4.27 µM. For the same compound, the IC50 (HEPG2TOX_HILL_SLOPE 8.49, HEPG2TOX_R_SQUARED 0.595, PBLUC_HILL_SLOPE 2.29, PBLUC_R_SQUARED 0.849, read-out: LUCIFERASE INFECTION ASSAY - IC50) came to 1.64 µM.
Turning to `Cn1cc(Br)cc1C(=O)Nc1ccc2c(c1)OCCO2`, the IC90 was above 10 µM. Moreover, under setting [1], the IC50 is above 10 µM.
In the case of `CNc1nc2cnc(Nc3cccc(OC(F)(F)F)c3)cc2n1-c1cc(OC)c(OC)c(OC)c1`, the concentration for an effect of 90% (IC90) was above 10 µM. For the setting “PBLUC_HILL_SLOPE 2.6, PBLUC_R_SQUARED 0.253, read-out: LUCIFERASE INFECTION ASSAY - IC50”, the IC50 was found to be 6.55 µM.
For `Cc1ccc(C(=O)OCC(=O)c2cc(C)n(-c3cccc(C(F)(F)F)c3)c2C)cc1NC(=O)c1ccco1`, the IC90 was above 10 µM. Also, the 50% inhibitory concentration (IC50) (FFLUC_HILL_SLOPE 14.7, FFLUC_R_SQUARED 0.458, read-out: LUCIFERASE INFECTION ASSAY - IC50) was above 10 µM.
For the compound `CC(C)Cc1ccc(C(=O)CC(Sc2ccccc2N)c2ccc(Cl)cc2)cc1` (stereo not given), the 90% effect concentration (IC90) was 1.03 µM. Under setting [1], the IC50 stood at 0.135 µM.
Consider `O=C(NCCCn1cnc2ccccc21)c1ccc(Oc2ccc(F)cc2)cc1`, for which the IC90 was above 10 µM. The 50% inhibitory concentration (IC50) (HEPG2TOX_HILL_SLOPE 1.27, HEPG2TOX_R_SQUARED 0.899, PBLUC_HILL_SLOPE 1.4, PBLUC_R_SQUARED 0.524, read-out: LUCIFERASE INFECTION ASSAY - IC50) stood at 5.3 µM.
Regarding `Cc1nc(C2CC2)ncc1-c1nc(=Nc2ccccc2)s[nH]1`, the IC90 was above 10.7 µM. The IC50 (HEPG2TOX_HILL_SLOPE 2.45, HEPG2TOX_R_SQUARED 0.884, PBLUC_HILL_SLOPE 3.42, PBLUC_R_SQUARED 0.283, read-out: LUCIFERASE INFECTION ASSAY - IC50) was determined as 7.23 µM.
Take `CC1(C)N=C(N)N=C(N)N1c1ccc(Cl)cc1` [CYCLOGUANIL]: the 90% effect concentration (IC90) was determined as 0.515 µM. Moreover, the half-inhibitory concentration (IC50) (FFLUC_HILL_SLOPE 0.496, FFLUC_R_SQUARED 0.478, PBLUC_HILL_SLOPE 5.33, PBLUC_R_SQUARED 0.733, read-out: LUCIFERASE INFECTION ASSAY - IC50) was 0.341 µM.
Turning to `O=C1CCCN1c1ccc(C2=NNC(=NC3CC3)SC2)cc1`, the 90% effect concentration (IC90) stood at 0.932 µM. Besides, where the note is “FFLUC_HILL_SLOPE 1.46, FFLUC_R_SQUARED 0.93, PBLUC_HILL_SLOPE 0.517, PBLUC_R_SQUARED 0.899, read-out: LUCIFERASE INFECTION ASSAY - IC50”, the 50% inhibitory concentration (IC50) came out at 0.0133 µM.
On to `C/C(=N\Nc1cccc([N+](=O)[O-])c1)c1cc2ccccc2o1`, for which the IC90 stood at 4.09 µM. Moreover, for the setting “PBLUC_HILL_SLOPE 10.9, PBLUC_R_SQUARED 0.683, read-out: LUCIFERASE INFECTION ASSAY - IC50”, the IC50 stood at 3.34 µM.
For `O=C(CSc1nnc(-c2ccccc2)[nH]1)N1c2ccccc2OCC1c1ccccc1` (stereo not given), the concentration for an effect of 90% (IC90) was above 10 µM. Besides, the IC50 (PBLUC_HILL_SLOPE 11.0, 1.31, PBLUC_R_SQUARED 0.138, 0.609, read-out: LUCIFERASE INFECTION ASSAY - IC50) turned out to be 6.33 µM.
Consider `C=CCN(C(=O)c1ccccc1Br)c1nc2ccccc2s1`, for which the IC90 was above 10 µM. The concentration for half-maximal inhibition (IC50) under setting [1] was above 10 µM.
Take `Clc1ccc2[nH]c(-c3cccs3)c(-c3ccccc3)c2c1`: the concentration for an effect of 90% (IC90) is above 10.7 µM. Further, the IC50 under setting [1] is 5.01 µM.
With `COc1cc(-c2cc3[nH]c4ccccc4n3c(=O)c2Sc2ccc([N+](=O)[O-])cc2)cc(OC)c1OC`, the 90% effect concentration (IC90) stood at 9.18 µM. Further, the half-inhibitory concentration (IC50) (PBLUC_HILL_SLOPE 1.34, PBLUC_R_SQUARED 0.513, read-out: LUCIFERASE INFECTION ASSAY - IC50) turned out to be 1.78 µM.
For the compound `CC(=O)Nc1ccc(NC(=O)c2cc(C)n(C3CCCCC3)c2C)cc1`, the IC90 was above 10 µM. The IC50 (HEPG2TOX_HILL_SLOPE 0.564, HEPG2TOX_R_SQUARED 0.119, read-out: LUCIFERASE INFECTION ASSAY - IC50) is above 10 µM.
On to `CCCn1c(C)cc(/C=C(\C#N)C(=O)Nc2ccc3c(c2)OCO3)c1C`, for which the IC90 came to 2.3 µM. Moreover, the IC50 (HEPG2TOX_HILL_SLOPE 1.46, HEPG2TOX_R_SQUARED 0.846, PBLUC_HILL_SLOPE 2.22, PBLUC_R_SQUARED 0.625, read-out: LUCIFERASE INFECTION ASSAY - IC50) is 0.857 µM.
Consider `CC(OC(=O)c1cc(-c2ccccc2)nc2c1cnn2Cc1ccccc1)C(=O)NC(C)(C)C` (stereo not given), for which the IC90 worked out at 6.73 µM. The IC50 (PBLUC_HILL_SLOPE 5.07, PBLUC_R_SQUARED 0.772, read-out: LUCIFERASE INFECTION ASSAY - IC50) stood at 4.36 µM.
With `CC(C)Oc1cccc(Nc2ncc(C(=O)c3cccc(-c4ccncc4)c3)[nH]2)c1`, the IC90 was 3.9 µM. Further, under “HEPG2TOX_HILL_SLOPE 3.28, HEPG2TOX_R_SQUARED 0.825, PBLUC_HILL_SLOPE 4.08, PBLUC_R_SQUARED 0.607, read-out: LUCIFERASE INFECTION ASSAY - IC50”, the half-inhibitory concentration (IC50) came out at 2.27 µM.
Turning to `COc1ccccc1N(C)S(=O)(=O)c1ccc(Cl)c(C(=O)Nc2cccc(C)n2)c1`, the IC90 came to 2.83 µM. Under “PBLUC_HILL_SLOPE 3.61, PBLUC_R_SQUARED 0.716, read-out: LUCIFERASE INFECTION ASSAY - IC50”, the IC50 amounted to 1.54 µM.

As usually defined, the IC50 is the concentration needed to halve the response being measured. By IC90 is commonly meant the concentration needed for an effect of 90%.
